US9738634B2, “Heterocyclic amide compound and herbicide” (SYNGENTA PARTICIPATIONS AG, priority 2013, dated 2017)

Legend:
Assay type in all cases: in vivo
Conditions in all cases: treatment dosage 320 g/ha
[1] = tested on: rapeseed; experiment: Test Example 3: soil treatment, effect on crop; g: rapeseed
How it was run: (§1)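 Crop and weed responses were judged three weeks after a uniform surface spray of the water-diluted emulsion at the given g/ha rate. Seeds sat beneath about 1.5 cm of sterilized diluvial soil, and boxes stood in a greenhouse at 25 to 30° C.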

[2] = tested on: soybean; experiment: Test Example 4: foliar treatment, effect on crop; d: soybean
How it was run: (§2)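 Seeds are spot-sown into sterilized diluvial soil and covered with about 1.5 cm of soil. After 14 days' greenhouse growth at 25 to 30° C, plants are sprayed on stems and leaves with diluted emulsion at the stated g/ha rate, then scored at 3 weeks.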

[3] = tested on: barnyard grass; experiment: Test Example 3: weedkilling efficacy through soil treatment; F: barnyard grass
How it was run: as §1

[4] = tested on: corn; experiment: Test Example 4: foliar treatment, effect on crop; c: corn
How it was run: as §2

[5] = tested on: crabgrass; experiment: Test Example 3: weedkilling efficacy through soil treatment; D: crabgrass
How it was run: as §1

[6] = tested on: black-grass; experiment: Test Example 3: weedkilling efficacy through soil treatment; H: black-grass
How it was run: as §1

[7] = tested on: soybean; experiment: Test Example 3: soil treatment, effect on crop; d: soybean
How it was run: as §1

[8] = tested on: birds-eye speedwell; experiment: Test Example 3: weedkilling efficacy through soil treatment; p: birds-eye speedwell
How it was run: as §1

[9] = tested on: barnyard grass; experiment: Test Example 4: weedkilling efficacy by foliar treatment; F: barnyard grass
Procedure: (§3) Testing of Weedkilling Efficacy by Foliar Treatment
(§4) Sterilized diluvial soil was introduced into 21 cm long, 13 cm wide, 7 cm deep plastic boxes, and seeds of crabgrass, green foxtail, barnyard grass, wild oat, black-grass, Italian ryegrass, common wind-grass, Indian mallow, redroot pigweed, fig-leafed goosefoot, chickweed, catchweed, birds-eye speedwell, corn, soybean, rice, wheat, beet and rapeseed were each spot-sown, and covered with about 1.5 cm of soil, then the plants were grown in a greenhouse at 25 to 30° C.
(§5) After they had grown for 14 days, emulsions of compounds of the present invention prepared according to compounding example 2 were diluted with water to give the specified dosages, and applied uniformly onto the stem and leaf parts with a small sprayer. 3 weeks after the pesticide treatment the effect on each type of plant was investigated on the basis of the assessment criteria of test example 1.
(§6) A: barnyard grass, B: bulrush, C: oval-leafed pondweed, D: crabgrass, E: green foxtail, F: barnyard grass, G: wild oat, H: black-grass, I: Italian ryegrass, J: common wind-grass, K: Indian mallow, L: redroot pigweed, M: fig-leafed goosefoot, N: chickweed, O: catchweed, p: birds-eye speedwell, a: transplanted rice, b: directly sown rice, c: corn, d: soybean, e: wheat, f: beet, g: rapeseed
(§7) Further, pesticide dosage (g/ha) indicates the concentration regulated such that treatment was with only the stated number of grams (g), when calculated per hectare (ha).

[10] = tested on: Indian mallow; experiment: Test Example 4: weedkilling efficacy by foliar treatment; K: Indian mallow
How it was run: as §2

[11] = tested on: Italian ryegrass; experiment: Test Example 4: weedkilling efficacy by foliar treatment; I: Italian ryegrass
How it was run: as §2

[12] = tested on: directly sown rice; experiment: Test Example 4: foliar treatment, effect on crop; b: directly sown rice
How it was run: as §2

[13] = tested on: green foxtail; experiment: Test Example 4: weedkilling efficacy by foliar treatment; E: green foxtail
How it was run: as §2

[14] = tested on: oval-leafed pondweed; experiment: Test Example 1: weedkilling efficacy, preemergent weed treatment in the submerged state; C: oval-leafed pondweed
How it was run: (§8)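 Pots of alluvial soil were flooded to a 4 cm depth. Mixed weed seeds were sown and 2.5 leaf-stage rice seedlings transplanted. On sowing day, water-diluted emulsion was applied to the water surface (dose in g/ha). After 3 weeks at 25–30 °C, effects were rated.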

[15] = tested on: wild oat; experiment: Test Example 4: weedkilling efficacy by foliar treatment; G: wild oat
How it was run: as §2

[16] = tested on: black-grass; experiment: Test Example 4: weedkilling efficacy by foliar treatment; H: black-grass
How it was run: as §2

[17] = tested on: Italian ryegrass; experiment: Test Example 3: weedkilling efficacy through soil treatment; I: Italian ryegrass
How it was run: as §1

[18] = tested on: corn; experiment: Test Example 3: soil treatment, effect on crop; c: corn
How it was run: as §1

[19] = tested on: beet; experiment: Test Example 4: foliar treatment, effect on crop; f: beet
How it was run: as §2

[20] = tested on: redroot pigweed; experiment: Test Example 4: weedkilling efficacy by foliar treatment; L: redroot pigweed
How it was run: as §2

[21] = tested on: common wind-grass; experiment: Test Example 3: weedkilling efficacy through soil treatment; J: common wind-grass
How it was run: as §1

[22] = tested on: redroot pigweed; experiment: Test Example 3: weedkilling efficacy through soil treatment; L: redroot pigweed
How it was run: as §1

[23] = tested on: bulrush; experiment: Test Example 2: weedkilling efficacy, growth period weed treatment in the submerged state; B: bulrush
How it was run: (§9)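 Weeds treated at the 1-2 leaf stage by application of diluted emulsion onto floodwater (4 cm depth, alluvial soil) at specified g/ha. Grown in greenhouse at 25 to 30° C; herbicidal effect rated three weeks after treatment.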

[24] = tested on: wild oat; experiment: Test Example 3: weedkilling efficacy through soil treatment; G: wild oat
How it was run: as §1

[25] = tested on: transplanted rice; experiment: Test Example 1: preemergent weed treatment in the submerged state, effect on crop; a: transplanted rice
How it was run: as §8

[26] = tested on: beet; experiment: Test Example 3: soil treatment, effect on crop; f: beet
How it was run: as §1

[27] = tested on: wheat; experiment: Test Example 3: soil treatment, effect on crop; e: wheat
How it was run: as §1

[28] = tested on: barnyard grass; experiment: Test Example 2: weedkilling efficacy, growth period weed treatment in the submerged state; A: barnyard grass
How it was run: as §9

[29] = tested on: Indian mallow; experiment: Test Example 3: weedkilling efficacy through soil treatment; K: Indian mallow
How it was run: as §1

[30] = tested on: directly sown rice; experiment: Test Example 3: soil treatment, effect on crop; b: directly sown rice
How it was run: as §1

[31] = tested on: wheat; experiment: Test Example 4: foliar treatment, effect on crop; e: wheat
How it was run: as §2

[32] = tested on: fig-leafed goosefoot; experiment: Test Example 4: weedkilling efficacy by foliar treatment; M: fig-leafed goosefoot
How it was run: as §2

[33] = tested on: rapeseed; experiment: Test Example 4: foliar treatment, effect on crop; g: rapeseed
Procedure: as §3, §4, §5, §6, §7

[34] = tested on: oval-leafed pondweed; experiment: Test Example 2: weedkilling efficacy, growth period weed treatment in the submerged state; C: oval-leafed pondweed
How it was run: as §9

[35] = tested on: barnyard grass; experiment: Test Example 1: weedkilling efficacy, preemergent weed treatment in the submerged state; A: barnyard grass
How it was run: as §8

[36] = tested on: chickweed; experiment: Test Example 3: weedkilling efficacy through soil treatment; N: chickweed
How it was run: as §1

[37] = tested on: green foxtail; experiment: Test Example 3: weedkilling efficacy through soil treatment; E: green foxtail
How it was run: as §1

[38] = tested on: common wind-grass; experiment: Test Example 4: weedkilling efficacy by foliar treatment; J: common wind-grass
Procedure: as §3, §4, §5, §6, §7

[39] = tested on: bulrush; experiment: Test Example 1: weedkilling efficacy, preemergent weed treatment in the submerged state; B: bulrush
How it was run: as §8

[40] = tested on: crabgrass; experiment: Test Example 4: weedkilling efficacy by foliar treatment; D: crabgrass
How it was run: as §2

[41] = tested on: chickweed; experiment: Test Example 4: weedkilling efficacy by foliar treatment; N: chickweed
How it was run: as §2

[42] = tested on: catchweed; experiment: Test Example 4: weedkilling efficacy by foliar treatment; O: catchweed
How it was run: as §2

[43] = tested on: fig-leafed goosefoot; experiment: Test Example 3: weedkilling efficacy through soil treatment; M: fig-leafed goosefoot
How it was run: as §1

In the case of `CC1=C(c2cccnc2F)C(=O)N(C(C)(C)C(=O)Nc2cc(C)cc(Cl)n2)CO1` [B-2-15], the “g (rapeseed) effect on crop grade” value [1] is reported as 2 (weed kill ratio 20% or more, less than 40%), the “d (soybean) effect on crop grade” value [2] is reported as 1 (weed kill ratio 5% or more, less than 20%) and the “F (barnyard grass) weedkilling efficacy grade” value [3] is reported as 5 (weed kill ratio 90% or more, (practically complete withering)). The “c (corn) effect on crop grade” value [4] was 4 (weed kill ratio 70% or more, less than 90%), the “D (crabgrass) weedkilling efficacy grade” value [5] was 5 (weed kill ratio 90% or more, (practically complete withering)) and the “H (black-grass) weedkilling efficacy grade” value [6] was 5 (weed kill ratio 90% or more, (practically complete withering)). The “d (soybean) effect on crop grade” value [7] was 0 (weed kill ratio 5% or less (practically no effect)), the “P (birds-eye speedwell) weedkilling efficacy grade” value [8] was 4 (weed kill ratio 70% or more, less than 90%) and the “F (barnyard grass) weedkilling efficacy grade” value [9] was 4 (weed kill ratio 70% or more, less than 90%). The “K (Indian mallow) weedkilling efficacy grade” value [10] was 1 (weed kill ratio 5% or more, less than 20%), the “I (Italian ryegrass) weedkilling efficacy grade” value [11] was 5 (weed kill ratio 90% or more, (practically complete withering)) and the “b (directly sown rice) effect on crop grade” value [12] was 5 (weed kill ratio 90% or more, (practically complete withering)). The “E (green foxtail) weedkilling efficacy grade” value [13] was 5 (weed kill ratio 90% or more, (practically complete withering)), the “C (oval-leafed pondweed) weedkilling efficacy grade” value [14] was 5 (weed kill ratio 90% or more, (practically complete withering)) and the “G (wild oat) weedkilling efficacy grade” value [15] was 3 (weed kill ratio 40% or more, less than 70%). The “H (black-grass) weedkilling efficacy grade” value [16] was 4 (weed kill ratio 70% or more, less than 90%), the “I (Italian ryegrass) weedkilling efficacy grade” value [17] was 5 (weed kill ratio 90% or more, (practically complete withering)) and the “c (corn) effect on crop grade” value [18] was 0 (weed kill ratio 5% or less (practically no effect)). The “f (beet) effect on crop grade” value [19] was 3 (weed kill ratio 40% or more, less than 70%), the “L (redroot pigweed) weedkilling efficacy grade” value [20] was 2 (weed kill ratio 20% or more, less than 40%) and the “J (common wind-grass) weedkilling efficacy grade” value [21] was 5 (weed kill ratio 90% or more, (practically complete withering)). For the same compound, the “L (redroot pigweed) weedkilling efficacy grade” value [22] was 0 (weed kill ratio 5% or less (practically no effect)), the “B (bulrush) weedkilling efficacy grade” value [23] was 5 (weed kill ratio 90% or more, (practically complete withering)) and the “G (wild oat) weedkilling efficacy grade” value [24] was 3 (weed kill ratio 40% or more, less than 70%). For the same compound, the “a (transplanted rice) effect on crop grade” value [25] was 3 (weed kill ratio 40% or more, less than 70%), the “f (beet) effect on crop grade” value [26] was 2 (weed kill ratio 20% or more, less than 40%) and the “e (wheat) effect on crop grade” value [27] was 0 (weed kill ratio 5% or less (practically no effect)). The “A (barnyard grass) weedkilling efficacy grade” value [28] was 4 (weed kill ratio 70% or more, less than 90%), the “K (Indian mallow) weedkilling efficacy grade” value [29] was 0 (weed kill ratio 5% or less (practically no effect)) and the “b (directly sown rice) effect on crop grade” value [30] was 5 (weed kill ratio 90% or more, (practically complete withering)). For the same compound, the “e (wheat) effect on crop grade” value [31] was 2 (weed kill ratio 20% or more, less than 40%), the “M (fig-leafed goosefoot) weedkilling efficacy grade” value [32] was 4 (weed kill ratio 70% or more, less than 90%) and the “g (rapeseed) effect on crop grade” value [33] was 4 (weed kill ratio 70% or more, less than 90%). For the same compound, the “C (oval-leafed pondweed) weedkilling efficacy grade” value [34] was 5 (weed kill ratio 90% or more, (practically complete withering)), the “A (barnyard grass) weedkilling efficacy grade” value [35] was 5 (weed kill ratio 90% or more, (practically complete withering)) and the “N (chickweed) weedkilling efficacy grade” value [36] was 2 (weed kill ratio 20% or more, less than 40%). For the same compound, the “E (green foxtail) weedkilling efficacy grade” value [37] was 5 (weed kill ratio 90% or more, (practically complete withering)), the “J (common wind-grass) weedkilling efficacy grade” value [38] was 5 (weed kill ratio 90% or more, (practically complete withering)) and the “B (bulrush) weedkilling efficacy grade” value [39] was 5 (weed kill ratio 90% or more, (practically complete withering)). For the same compound, the “D (crabgrass) weedkilling efficacy grade” value [40] was 4 (weed kill ratio 70% or more, less than 90%), the “N (chickweed) weedkilling efficacy grade” value [41] was 4 (weed kill ratio 70% or more, less than 90%) and the “O (catchweed) weedkilling efficacy grade” value [42] was 3 (weed kill ratio 40% or more, less than 70%). For the same compound, the “M (fig-leafed goosefoot) weedkilling efficacy grade” value [43] was 3 (weed kill ratio 40% or more, less than 70%).
